Measurements: US9695155B2, “Herbicidal substituted pyrimidinyloxy benzene compounds” (E. I. DU PONT DE NEMOURS AND COMPANY, priority 2013, dated 2017)

Key:
wheat = test: Test A postemergence; type: in vivo, Triticum aestivum
Outline: (§1)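 Injury scores run from 0, no effect, to 100, complete control, judged by eye against untreated plants roughly 10 days after treatment. Chemicals carried a surfactant in a non-phytotoxic solvent and went onto loam–sand soil preemergence or onto one- to two-leaf seedlings postemergence.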

rice = test: Test B flooded paddy test; type: in vivo, Oryza sativa; conditions: Flood, 250 g ai/ha; 0 to 100 scale where 0 is no effect and 100 is complete control
Outline: (§2)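 Plants at 2-leaf stage; pots flooded to 3 cm above soil and compound applied directly into paddy water, depth held throughout. After 13 to 15 days in greenhouse, visual rating versus controls on 0 (no effect) to 100 (complete control) scale.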

ragweed [1] = test: Test A preemergence; type: in vivo, Ambrosia elatior; conditions: for Ragweed plant response rating (0 to 100 scale): 31 g ai/ha; for Plant response rating, Ragweed: 125 g ai/ha
Outline: as §1

sedge, umbrella = test: Test B flooded paddy test; type: in vivo, Cyperus difformis; conditions: Flood, 250 g ai/ha; 0 to 100 scale where 0 is no effect and 100 is complete control
Outline: as §2

barnyardgrass [2] = test: Test B flooded paddy test; type: in vivo, Echinochloa crus-galli; conditions: Flood, 250 g ai/ha; 0 to 100 scale where 0 is no effect and 100 is complete control
Outline: as §2

ragweed [3] = test: Test A postemergence; type: in vivo, Ambrosia elatior
Outline: as §1

giant foxtail [4] = test: Test A postemergence; type: in vivo, Setaria faberii
Outline: as §1

blackgrass = test: Test A postemergence; type: in vivo, Alopecurus myosuroides
Outline: as §1

kochia [5] = test: Test A preemergence; type: in vivo, Kochia scoparia; conditions: for Kochia plant response rating (0 to 100 scale): 31 g ai/ha; for Plant response rating, Kochia: 125 g ai/ha
Outline: as §1

giant foxtail [6] = test: Test A preemergence; type: in vivo, Setaria faberii; conditions: for Foxtail, Giant plant response rating (0 to 100 scale): 31 g ai/ha; for Plant response rating, Foxtail, Giant: 125 g ai/ha
Outline: as §1

Italian ryegrass [7] = test: Test A preemergence; type: in vivo, Lolium multiflorum; conditions: for Ryegrass, Italian plant response rating (0 to 100 scale): 31 g ai/ha; for Plant response rating, Ryegrass, Italian: 125 g ai/ha
Outline: as §1

kochia [8] = test: Test A postemergence; type: in vivo, Kochia scoparia
Outline: as §1

Heteranthera limosa = test: Test B flooded paddy test; type: in vivo; conditions: Flood, 250 g ai/ha; 0 to 100 scale where 0 is no effect and 100 is complete control
Outline: as §2

pigweed [9] = test: Test A preemergence; type: in vivo, Amaranthus retroflexus; conditions: for Pigweed plant response rating (0 to 100 scale): 31 g ai/ha; for Plant response rating, Pigweed: 125 g ai/ha
Outline: as §1

barnyardgrass [10] = test: Test A preemergence; type: in vivo, Echinochloa crus-galli; conditions: for Barnyardgrass plant response rating (0 to 100 scale): 31 g ai/ha; for Plant response rating, Barnyardgrass: 125 g ai/ha
Outline: as §1

Italian ryegrass [11] = test: Test A postemergence; type: in vivo, Lolium multiflorum
Outline: as §1

galium = test: Test A postemergence; type: in vivo, Galium aparine
Outline: as §1

pigweed [12] = test: Test A postemergence; type: in vivo, Amaranthus retroflexus; conditions: for Plant response rating, Pigweed: 0 to 100 scale, 0 no effect, 100 complete control
Outline: as §1

barnyardgrass [13] = test: Test A postemergence; type: in vivo, Echinochloa crus-galli
Outline: as §1

corn = test: Test A postemergence; type: in vivo, Zea mays
Outline: as §1

[14] = 31 g ai/ha, 0 to 100 scale, 0 no effect, 100 complete control
[15] = 0 to 100 scale where 0 is no effect and 100 is complete control
[16] = 125 g ai/ha, 0 to 100 scale where 0 is no effect and 100 is complete control
[17] = 500 g ai/ha, 0 to 100 scale where 0 is no effect and 100 is complete control
[18] = 1000 g ai/ha, 0 to 100 scale, 0 no effect, 100 complete control
[19] = 1000 g ai/ha, 0 to 100 scale, 0 no effect, 100 complete control, approx. 10 days

Clc1cnc(Oc2ccccc2-n2ccnc2)nc1 [Compound 100]
15: Plant response rating, Barnyardgrass (barnyardgrass [2])
0: Plant response rating, Wheat (wheat; [14]) | Plant response rating, Rice (rice) | Ragweed plant response rating (0 to 100 scale) (ragweed [1]) | Plant response rating, Ragweed (ragweed [1]; [15]) | Plant response rating, Sedge, Umbrella (sedge, umbrella) | Plant response rating, Ragweed (ragweed [3]; [14]) | Plant response rating, Foxtail, Giant (giant foxtail [4]; [14]) | Plant response rating, Foxtail, Giant (giant foxtail [4]; [16]) | Plant response rating, Blackgrass (blackgrass; [14]) | Plant response rating, Blackgrass (blackgrass; [16]) | Kochia plant response rating (0 to 100 scale) (kochia [5]) | Plant response rating, Kochia (kochia [5]; [15]) | Foxtail, Giant plant response rating (0 to 100 scale) (giant foxtail [6]) | Plant response rating, Foxtail, Giant (giant foxtail [6]; [15]) | Ryegrass, Italian plant response rating (0 to 100 scale) (Italian ryegrass [7]) | Plant response rating, Ryegrass, Italian (Italian ryegrass [7]; [15]) | Plant response rating, Kochia (kochia [8]; [14]) | Plant response rating, Kochia (kochia [8]; [16]) | Plant response rating, Ducksalad (Heteranthera limosa) | Pigweed plant response rating (0 to 100 scale) (pigweed [9]) | Plant response rating, Pigweed (pigweed [9]; [15]) | Barnyardgrass plant response rating (0 to 100 scale) (barnyardgrass [10]) | Plant response rating, Barnyardgrass (barnyardgrass [10]; [15]) | Plant response rating, Ryegrass, Italian (Italian ryegrass [11]; [14]) | Plant response rating, Galium (galium; [14]) | Plant response rating, Pigweed (pigweed [12]; 31 g ai/ha) | Plant response rating, Barnyardgrass (barnyardgrass [13]; [14]) | Plant response rating, Barnyardgrass (barnyardgrass [13]; [16]) | Plant response rating, Corn (corn; [14]) | Plant response rating, Corn (corn; [16])
10: Plant response rating, Galium (galium; [16])

N#Cc1cccc(Oc2ncc(Cl)cn2)c1-n1cc(SC(F)(F)F)cn1 [Compound 143, 3-[(5-chloro-2-pyrimidinyl)oxy]-2-[4-(trifluoromethylthio)-1H-pyrazol-1-yl]-benzonitrile]
90: Plant response rating, Blackgrass (blackgrass; [17]) | Plant response rating, Kochia (kochia [8]; [17]) | Plant response rating, Pigweed (pigweed [9]; [15]) | Plant response rating, Ryegrass, Italian (Italian ryegrass [11]; [17])
70: Pigweed plant response rating (pigweed [12]; [16])
80%: pest or weed control at 500 g/ha (barnyardgrass [13]; Echinochloa crus-galli, post-emergence, 240 h, 500 g ai/ha, 0 to 100 scale where 0 is no effect and 100 is complete control, read-out: Plant response rating, Barnyardgrass)
100: Plant response rating, Ragweed (ragweed [3]; [17]) | Kochia plant response rating (kochia [5]; [17]) | Plant response rating, Galium (galium; [17])
80: Plant response rating, Foxtail, Giant (giant foxtail [6]; [15])
100%: pest or weed control at 500 g/ha (giant foxtail [4]; Setaria faberi, post-emergence, 240 h, 500 g ai/ha, 0 to 100 scale where 0 is no effect and 100 is complete control, read-out: Plant response rating, Foxtail, Giant) | pest or weed control at 500 g/ha (giant foxtail [6]; Setaria faberi, pre-emergence, 240 h, 500 g ai/ha, 0 to 100 scale where 0 is no effect and 100 is complete control, read-out: Foxtail, Giant plant response rating) | pest or weed control at 500 g/ha (pigweed [9]; Amaranthus retroflexus, pre-emergence, 240 h, 500 g ai/ha, 0 to 100 scale where 0 is no effect and 100 is complete control, read-out: Pigweed plant response rating) | pest or weed control at 500 g/ha (barnyardgrass [10]; Echinochloa crus-galli, pre-emergence, 240 h, 500 g ai/ha, 0 to 100 scale where 0 is no effect and 100 is complete control, read-out: Barnyardgrass plant response rating) | pest or weed control at 500 g/ha (pigweed [12]; Amaranthus retroflexus, post-emergence, 500 g ai/ha, 0 to 100 scale where 0 is no effect and 100 is complete control, read-out: Plant response rating, Pigweed)
40: Plant response rating, Ducksalad (Heteranthera limosa)
40%: Corn plant response rating (crop injury, 0 = no effect, 100 = complete kill) at 500 g/ha (corn; Zea mays, post-emergence, 240 h, 500 g ai/ha, 0 to 100 scale where 0 is no effect and 100 is complete control)
30: Plant response rating, Wheat (wheat; [17]) | Kochia plant response rating (kochia [8]; [16]) | Plant response rating, Barnyardgrass (barnyardgrass [10]; [15]) | Galium plant response rating (galium; [16]) | Corn plant response rating (corn; [16])
50: Plant response rating, Kochia (kochia [5]; [15])
0: Wheat plant response rating (wheat; [16]) | Plant response rating, Rice (rice) | Plant response rating, Ragweed (ragweed [1]; [15]) | Plant response rating, Sedge, Umbrella (sedge, umbrella) | Plant response rating, Barnyardgrass (barnyardgrass [2]) | Ragweed plant response rating (ragweed [3]; [16]) | Foxtail, Giant plant response rating (giant foxtail [4]; [16]) | Blackgrass plant response rating (blackgrass; [16]) | Plant response rating, Ryegrass, Italian (Italian ryegrass [7]; [15]) | Ryegrass, Italian plant response rating (Italian ryegrass [11]; [16]) | Barnyardgrass plant response rating (barnyardgrass [13]; [16])
20: Ragweed plant response rating (ragweed [1]; [17]) | Ryegrass, Italian plant response rating (Italian ryegrass [7]; [17])

Cc1noc(-c2cccc(Oc3ncc(Cl)cn3)c2-n2cc(C(F)(F)F)cn2)n1 [Compound 299]
30: Plant response rating, Ragweed (ragweed [3]; [18])
70: Ragweed plant response rating (ragweed [1]; [19]) | Plant response rating, Sedge, Umbrella (sedge, umbrella) | Plant response rating, Kochia (kochia [8]; [18]) | Plant response rating, Ryegrass, Italian (Italian ryegrass [11]; [18]) | Plant response rating, Corn (corn; [18])
20: Plant response rating, Wheat (wheat; [18]) | Plant response rating, Barnyardgrass (barnyardgrass [2]) | Plant response rating, Ducksalad (Heteranthera limosa)
80: Plant response rating, Blackgrass (blackgrass; [18]) | Plant response rating, Galium (galium; [18]) | Plant response rating, Barnyardgrass (barnyardgrass [13]; [18])
100: Kochia plant response rating (kochia [5]; [19]) | Foxtail, Giant plant response rating (giant foxtail [6]; [19]) | Pigweed plant response rating (pigweed [9]; [19]) | Plant response rating, Pigweed (pigweed [12]; 1000 g ai/ha)
90: Plant response rating, Foxtail, Giant (giant foxtail [4]; [18]) | Barnyardgrass plant response rating (barnyardgrass [10]; [19])
15: Plant response rating, Rice (rice)
60: Ryegrass, Italian plant response rating (Italian ryegrass [7]; [19])

FC(F)(F)COc1cnn(-c2c(Cl)cccc2Oc2ncc(Cl)cn2)c1 [Compound 110]
30: Barnyardgrass plant response rating (0 to 100 scale) (barnyardgrass [10])
0: Plant response rating, Wheat (wheat; [14]) | Plant response rating, Rice (rice) | Ragweed plant response rating (0 to 100 scale) (ragweed [1]) | Ryegrass, Italian plant response rating (0 to 100 scale) (Italian ryegrass [7]) | Plant response rating, Ryegrass, Italian (Italian ryegrass [11]; [14])
45: Plant response rating, Barnyardgrass (barnyardgrass [2])
100: Foxtail, Giant plant response rating (0 to 100 scale) (giant foxtail [6]) | Plant response rating, Foxtail, Giant (giant foxtail [6]; [15]) | Plant response rating, Kochia (kochia [8]; [16]) | Pigweed plant response rating (0 to 100 scale) (pigweed [9]) | Plant response rating, Pigweed (pigweed [9]; [15]) | Plant response rating, Pigweed (pigweed [12]; 31 g ai/ha)
20: Plant response rating, Foxtail, Giant (giant foxtail [4]; [14]) | Plant response rating, Blackgrass (blackgrass; [14]) | Kochia plant response rating (0 to 100 scale) (kochia [5]) | Plant response rating, Ryegrass, Italian (Italian ryegrass [7]; [15])
50: Plant response rating, Corn (corn; [16])
90: Plant response rating, Foxtail, Giant (giant foxtail [4]; [16]) | Plant response rating, Kochia (kochia [8]; [14]) | Plant response rating, Barnyardgrass (barnyardgrass [10]; [15]) | Plant response rating, Galium (galium; [16]) | Plant response rating, Barnyardgrass (barnyardgrass [13]; [16])
80: Plant response rating, Blackgrass (blackgrass; [16]) | Plant response rating, Kochia (kochia [5]; [15])
95: Plant response rating, Sedge, Umbrella (sedge, umbrella) | Plant response rating, Ducksalad (Heteranthera limosa)
40: Plant response rating, Galium (galium; [14])
10: Plant response rating, Ragweed (ragweed [1]; [15]) | Plant response rating, Ragweed (ragweed [3]; [14]) | Plant response rating, Barnyardgrass (barnyardgrass [13]; [14]) | Plant response rating, Corn (corn; [14])
